The test system of test [1] is ERα downstream targets PGR and GREB1 in PDEC-BC. Kind of test: QRT-PCR of ERα target genes in PDEC-BC cultures after tamoxifen/antiestrogen treatment. The class given is cell-based, human. On the procedure:
Instead of anisomycin, the stress activated protein kinase pathway is also activated by multiple other factors e.g oxidative stress. We observed, if the PDEC cultures were performed under a higher oxygen concentration, such as in air-liquid interface, the functional ERα was preserved together with the activation of p38 (FIG. 5A). We treated these PDEC-BC with antiestrogens and observed a suppression in ERα downstream targets PGR and GREB1 (FIG. 5B).
We exposed the human PDEC-N and PDEC-BC cultures to the additional compressive forces with the magnet mediated mechanical compression (FIG. 5C). […] We treated the compressed PDEC-BC with tamoxifen and observed a suppression in ERα downstream targets PGR and GREB1 (FIG. 5E).

For the next test, the system named is MMECs. Kind of test: Immunofluorescent staining of nuclear ERα in MMECs after compound exposure. Type of test: cell-based, mouse. The note with it: MMECs after exposure to compound. On the procedure:
Mouse primary mammary epithelial fragments were isolated with 0.2% collagenase for 1 h at +37° C. Media used for the mouse tissue was DMEM/F12 (Thermo Fisher Scientific) supplemented with 5% horse serum, 5 ug/mL Insulin, 1 µg/mL hydrocortisone, 10 ng/mL EGF, and 100 U PenStrep.
For immunofluorescent analysis 3D cultured breast cancer fragments were fixed with 4% paraformaldehyde for 20 min at room temperature and washed three times with PBS. The tissue fragments were permeabilized with 0.25% Triton X-100 in PBS for 10 min at RT and blocked in IF buffer (7.7 mM NaN3, 0.1% BSA, 0.2% Triton X-100, and 0.05% Tween 20 in PBS) supplemented with 10% (vol/vol) normal goat serum for1-1.5 h. The fragments were then incubated with the primary antibody diluted in blocking solution overnight at +4° C. Following incubation, fragments were washed three times with IF buffer (20 min each wash) and then incubated with the appropriate Alexa Fluor secondary antibody diluted in IF buffer with 10% goat serum. After 60 min of incubation at RT, the fragments were washed with IF buffer as before and the nuclei were counterstained with Hoechst 33258 (Sigma). Slides containing tissue fragments were mounted with ImmuMount reagent. Images of the structures were acquired using a Leica TCS SP8 CARS confocal microscope using a HC PL APO CS2 40x objective. […]

The subject of a further test is TNBC cell line DU4475. Kind of test: Immunofluorescent staining of nuclear ERα in TNBC cell line DU4475 after EZH2 inhibitor. The following applies: TNBC cell line DU4475 after exposure to compound. Type of test: cell-based.
The test system of another test is PDEC-N and PDEC-BC. Kind of test: Immunofluorescent staining of nuclear ERα and phosphorylated p38 in PDEC-N and PDEC-BC after compound exposure. Type of test: cell-based, human. The procedure: Fresh tissue was obtained from elective breast cancer surgeries. Tissue was collected from both the tumor tissue and the area surrounding the tumor (non-tumor samples). Also tissue from reduction mammoplasties (RMP) were collected. From every tumor, one portion was taken for immunohistochemical analysis (IHC), for DNA/RNA/protein isolation, and the rest was used for isolation of fragments and 3D culture. For isolation of human breast cancer fragments, breast cancer tissue was incubated with 0.2% collagenase in MammoCult media produced by StemCell technologies (supplemented with 4 ug/mL heparin, MammoCult proliferation supplements, 0.1 µg/mL 10.000 UI/mL PenStrep, Amphotericin, and 25 µg/mL Gentamycin) with gentle shaking at 37° C. overnight. The resulting cell suspension was then centrifuged at 1,300 rpm for 3 min, washed once with MammoCult and plated in 8-chamber plates. Matrices used for the cultures were: Agarose (UltraPure™ Low Melting Point Agarose, Invitrogen™), Collagen (Collagen I Rat tail, Corning), Matrigel (Matrigel Basement Matrix Growth Factor Reduced, 8.8 mg/mL, Corning), Egg white, Ovomucine, GrowDex (15 mg/mL, UPM-Kymmene OYj), Alginate (Alginic acid sodium salt, Aldrich) and Alginate-RGD (Sodium Alginate MVG GRGDSP, NovaMatrix, NOVATACH). Ovomucin was isolated from chicken egg whites according to an established protocol (Omana and Wu, 2009, J Agric Food Chem 57, 3596-3603). Briefly, ovomucin was isolated from egg white using isoelectric precipitation in the presence of 100 mM NaCl solution at pH adjusted to 6.0. The resulting mixture was stored overnight at 4° C. in a refridgerator followed by centrifugation. The precipitate was re-suspended in 500 mM NaCl solution at pH 6.0 again and stored overnight at 4° C. The dispersion was centrifuged, and the precipitate was purified by dialyzing against water overnight. Dialysed sample was freeze-dried under the vacuum. For gelation, the solid ovomucin powder was dissolved in MilliQ (18 W) water using Ultra-Turrax (IKA) mixer.
For immunofluorescent analysis 3D cultured breast cancer fragments were fixed with 4% paraformaldehyde for 20 min at room temperature and washed three times with PBS. The tissue fragments were permeabilized with 0.25% Triton X-100 in PBS for 10 min at RT and blocked in IF buffer (7.7 mM NaN3, 0.1% BSA, 0.2% Triton X-100, and 0.05% Tween 20 in PBS) supplemented with 10% (vol/vol) normal goat serum for1-1.5 h. The fragments were then incubated with the primary antibody diluted in blocking solution overnight at +4° C. Following incubation, fragments were washed three times with IF buffer (20 min each wash) and then incubated with the appropriate Alexa Fluor secondary antibody diluted in IF buffer with 10% goat serum. After 60 min of incubation at RT, the fragments were washed with IF buffer as before and the nuclei were counterstained with Hoechst 33258 (Sigma). Slides containing tissue fragments were mounted with ImmuMount reagent. Images of the structures were acquired using a Leica TCS SP8 CARS confocal microscope using a HC PL APO CS2 40x objective.
(§1) We observed stress-responsive mitogen-activated protein kinase (MAPKs) pathway activated in the in LMx-Ag, compared to LMx-Al. The nuclear expression of phosphorylated p38 was also visible in the MMECs cultured in LMx-Ag. To confirm the role of stress-responsive mitogen-activated protein kinases in the ERα activation, we used anisomycin to directly activate the pathway in TNBC cell line, DU4475. […] We used inhibitor of the methyltransferase EZH2, which mediates the silencing of ERα and observed the retained expression of ERα (FIG. 4D).

A further test deals with TNBC cell line, DU4475. Kind of test: Western blot of ERα in TNBC cell line after anisomycin treatment. The class given is cell-based.
Text: as §1
(In general: Immunoblotting shows a protein as a band on a membrane.)

The mark [2] stands for this setting: PDEC-BC exposed to magnet-mediated compression.
Where [3] appears, read: PDEC-BC (PDEC-T) after exposure to compound.
The mark [4] stands for this setting: PDEC-N after exposure to compound.

“Also recorded” adds a separate entry of the source.

As for `CC/C(=C(\c1ccccc1)c1ccc(OCCN(C)C)cc1)c1ccccc1` [tamoxifen], the GREB1 expression result in test [1] (setting [2]) is listed as “suppression”. Further, the “PGR expression (QRT-PCR)” value was “suppression” in test [1] (setting [2]); “suppresses” in test [1] (PDEC-BC exposed to magnet-mediated compression, listed as Tamoxifen); “downregulation” in test [1] (air-liquid interface (ALI) cultured PDEC-BC, o/n treatment).
Take `CC[C@H](C)n1cc(C)c2c(C(=O)NCc3c(C)cc(C)[nH]c3=O)cc(-c3ccc(N4CCNCC4)nc3)cc21` [GSK-126]: the “nuclear ERα (immunofluorescent staining)” value in the test on MMECs is “activation of nuclear ERα”; in the test with TNBC cell line DU4475 it was “activation of nuclear ERα”; in the test with PDEC-N and PDEC-BC (setting [3]), “activation of nuclear ERα”; in the test with PDEC-N and PDEC-BC (setting [4]) it was “activation of nuclear ERα”.
Take `COc1ccc(C[C@H]2NC[C@H](O)[C@H]2OC(C)=O)cc1` [anisomycin]: the “nuclear ERα (immunofluorescent staining)” value in the test on MMECs is recorded as “activation of nuclear ERα”; in the test with PDEC-N and PDEC-BC (setting [3]) it was “activation of nuclear ERα”; in the test with PDEC-N and PDEC-BC (setting [4]), “activation of nuclear ERα”. Further, the “phosphorylated p38 (immunofluorescent staining)” value with PDEC-N and PDEC-BC (PDEC-BC after exposure to compound) was “activation of phosphorylated-38”; in the test on PDEC-N and PDEC-BC (setting [4]), “activation of phosphorylated-38”. The “ERα expression (Western blot)” value in the test on TNBC cell line, DU4475 is given as “able to activate the ERα expression; also recorded: upregulation of ERα”.
